“And” between values parts separate entries of the source, which are not always exact repeats. Equal entries are not always repeated. Where only a bound is given, the exact number is not on record here.

Results on one molecule are retold here after patent US6447801B1, “Anti-parasitic action of N,N-diethyl-m-toluamide (deet) and formulations that prolong its activity in the skin” (priority 1997, dated 2002).

Assay [1] concerns cercariae of Schistosoma mansoni. Nature of the assay: In vitro effects of DEET on S. mansoni cercariae (viability by neutral red). The class given is cell-based. How it is done:
FIG. 1 illustrates the in vitro effects of DEET on S. mansoni cercariae. In vitro effects of DEET on cercariae of Schistosoma mansoni. Cercariae were placed in 96 well titre plates coated previously with a serial doubling dilutions of DEET ranging from 30% to 0.24%. At different time periods after exposure to DEET, the percent viability of cercariae was evaluated by neutral red exclusion method. The experiment was repeated 17 times with an “n” of 189 to 440 cercariae for each treatment.
Based on the foregoing observations, DEET was tested for its effects on S. mansoni cercariae. DEET is commercially available and was purchased from Fluka Chemicals Corp. (Ronkonkoma, N.Y.). For in vitro studies, serial doubling dilutions of DEET ranging from 30% to 0.24% were prepared in isopropanol(Sigma, St. Louis, Mo.) and 50 μl of each dilution was transferred to individual wells of a 96 well flat bottom micro titre plate (Costar, Cambridge, Mass.). Control wells received 50 μl of isopropanol each. The plates were then kept covered in a fume hood and the fluid was allowed to evaporate overnight. The following day approximately 50 cercariae of S. mansoni suspended in 50 μl of RPMI-1640 media (pH 7.4; Gibco BRL) or phosphate buffered saline (PBS, pH 7.0) was placed in each well and the viability of the cercariae were monitored at 30 min, 60 min, and 4 hrs. A total of 17 replicas were performed for each dilution and for each time point in any one given experiment. To determine the viability of cercariae, 10 μl of a 0.05% Neutral Red (Sigma Chemical Co.) was added to each well at the end of the experiment and the percentage of live and dead cercariae was determined as described in He et al., Acta Zoologica Sinica, 31:240-245 (1985).

In another assay the test system is cercariae of S. mansoni. Nature of the assay: Cercarial penetration through mouse skin and worm establishment, application before infection (compressed organ autoradiography). The conditions noted are these: for protection against schistosomiasis: 10% DEET. The class given is in vivo, Schistosoma mansoni. The text has this:
For in vivo animal experiments, male mice of the CD1 strain, weighing approximately 18-20 grams, purchased from Charles River Laboratories (Wilmington, Mass.) were used. The use of animals in these experiments were in compliance with the Animal Welfare Act and other Federal statues and regulations relating to animals as stated in the National Institute of Health publication: Guide for the Care and Use of Laboratory Animals. Mice were infected individually with schistosome cercariae via either tail skin or via shaved abdominal skin. For infection via tail skin, the mouse was restrained in a cage and the tail was dipped for 60 minutes in a tube containing 250-300 ^35S-labeled cercariae suspended in 10 ml of distilled water at room temperature. For infection via abdominal skin, the mouse was restrained on its back. After shaving the abdominal skin, 150-200 ^35S-labeled cercariae were applied to the skin in a drop of distilled water, covered with a cover slip and exposed for 30 minutes.
To determine skin penetration and worm establishment, whole tail skin or the area of abdominal skin that was exposed to the cercariae as described above and the lungs were removed from each mouse on day seven after infection and processed for compressed organ autoradiography techniques as described previously (Li J W et al., Parasitology International 46: 55-65 (1997)). Briefly, the skin and lungs were mounted on a cardboard sheet, covered with plastic wrap and kept under a tissue press for 48 hrs at room temperature. The pressed and dried tissue was then exposed to X-ray film (Fuji RX, Fisher Scientific, Pittsburgh, Pa.) at −70° C. for 7-9 days. Following autoradiographic development, the dark spots (which represent reduced silver foci on film) were counted and percent worm establishment was calculated (number of spots/total number of cercariae used for infection X 100).
For application of DEET to the tail skin, mice were individually kept in restraining cages and their tail was dipped in 7.5% DEET solution (prepared in isopropanol) for 5 min. Following application the skin was air dried for 30 min, and rinsed in distilled water for 1 min before exposure to radio-labeled cercariae of S. mansoni as mentioned in Example 3.
For application of DEET to the abdominal skin, mice were restrained to the back and their abdomen shaved. 200 μl of an appropriate concentration of DEET in isopropanol solution was dropped on to the abdomen and allowed to dry for 15 min. After drying, the skin was washed for 1 min with distilled water and exposed to radio-labeled cercariae for 30 min.
Experiments were also conducted to see how long the cercaricidal activity of DEET remained in the skin after a single application. In these experiments 10% DEET was applied to the shaved abdominal skin of mice and was allowed to dry. Thirty minutes after DEET application, the area of skin was washed continuously for one minute with running distilled water. At different time points (30 min, 1 hr, 4 hrs, and 24 hrs) after DEET application, mice were infected with radio-labeled cercariae (as described in Example 2) and worm establishment was determined by compressed organ autoradiography (as described in Example 3).

[2] abbreviates: 7.5% DEET applied to skin before infection, mice, day 7, n = 10.

Take `CCN(CC)C(=O)c1cccc(C)c1` [DEET, N,N-diethyl-m-toluamide]: in assay [1] (DEET 7.5%), the “time to immobilize all the cercariae” value was ≤ 5 min. Also, the cercariae dead in assay [1] (DEET 7.5%, by 4 hours) came out at 100%. In addition, the immobilization of cercariae result in assay [1] (DEET at concentrations of 15% and above) was “immediately immobilized”. The “cercariae dead (neutral red staining)” value in assay [1] (DEET at concentrations of 15% and above, 30 minutes) was 100%. Moreover, in assay [1] (concentrations below 7.5% of DEET), the “immobilizing or killing of cercariae” value was “less effective in immobilizing or killing cercariae”. Moreover, the “protection against cercarial penetration” value in the assay on cercariae of S. mansoni (5% DEET applied to mouse skin) came out at 72%. The “Percent Worm Established, Lungs” value with cercariae of S. mansoni (setting [2]) was determined as 0. Moreover, the “Percent Worm Established, Skin” value with cercariae of S. mansoni (setting [2]) came out at 0.13 ± 0.01%. The “Percent Worm Established, Total” value with cercariae of S. mansoni (setting [2]) was 0.13% and 0.13 ± 0.01%. The protection against schistosomiasis in the assay on cercariae of S. mansoni (infection 30 min after application, skin washed one minute) is reported as 100%; in the assay on cercariae of S. mansoni (infection 24 hrs after application) it was “no protection at all”; in the assay with cercariae of S. mansoni (infection four hours after application), 85±1%; with cercariae of S. mansoni (infection one hour after application) it was 98±1%. In addition, the “effectiveness in preventing the entry of cercaria into the mouse skin” value in the assay with cercariae of S. mansoni (DEET at 10, 20 or 40%) amounted to 100%.
